# Measurements: PMC4167603 (Nature, 2014)
# What was measured:
# [1] = biological target: T1, GABAAR β3 homopentamer (GABAAR-β3cryst) (Homo sapiens, UniProt P28472, DEL333-446/INS332SQPARAA); experiment: X-ray co-crystal structure; assay type: cell-based
# T1 sequence (P28472 with tags, fused parts or gaps INS332SQPARAA): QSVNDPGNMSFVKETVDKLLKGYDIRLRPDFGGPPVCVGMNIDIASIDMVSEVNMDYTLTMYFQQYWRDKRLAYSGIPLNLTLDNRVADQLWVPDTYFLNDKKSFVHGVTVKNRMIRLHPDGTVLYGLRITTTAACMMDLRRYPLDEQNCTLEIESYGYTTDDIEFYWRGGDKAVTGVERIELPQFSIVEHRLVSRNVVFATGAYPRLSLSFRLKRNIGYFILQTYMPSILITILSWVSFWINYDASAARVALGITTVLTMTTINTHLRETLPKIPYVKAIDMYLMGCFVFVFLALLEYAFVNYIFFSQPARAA
# T1 sequence (P28472 447-473): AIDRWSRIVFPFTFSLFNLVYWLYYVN
# [2] = biological target: T1, GABAAR β3 homopentamer (GABAAR-β3cryst); experiment: thermostabilisation of purified receptor; assay type: binding
# [3] = biological target: T1, GABAAR β3 homopentamer (GABAAR-β3cryst); experiment: thermostabilisation of purified receptor; assay type: binding; remark: listed apart in the source
smiles,measurement,setting,value
N=C(N)c1ccccc1 [benzamidine],EC50,[1],61 ± 12 µM
N#Cc1nn(-c2c(Cl)cc(C(F)(F)F)cc2Cl)c(N)c1[S+]([O-])C(F)(F)F (stereo not drawn) [fipronil],EC50,[2],26 ± 5 nM
NCCc1c[nH]cn1 [histamine],EC50,[3],400 ± 150 µM
